Tests used:
[1] = tested on: malign breast carcinoma (C. mammae); experiment: Double blind clinical test, topical cream once a day for 3 months, patients with malign breast carcinoma; type: in vivo, human; details: for Clinical Remission: daily topical cream, 3 months
Protocol: Double blind clinical tests were conducted with a group of 10 female patients. In this clinical testing, particular attention was paid to hormone receptor statuses of patients' target breast cancer tissue regarding progesterone receptor (PR) and in particular regarding estrogen receptor (ER); The cancers of the patients were assumed to be predominantly androgen receptor (AR) positive. Among this group, six patients had histologically ascertained malign breast carcinoma (C. mammae). […] In a sixth patient, the presence of a malign breast carcinoma was ascertained, but the amount of cancer tissue was too low to determine receptor status.
(§1) All 10 female patients were topically and locally treated using 4-hydroxytestosterone as active agent, by administering of a cream as described in Example 2 locally to target skin portions of the breasts. After continuing daily topical administration once a day during an administration period of 3 months, clinical investigations on therapeutic effects were performed.
The results of the 6 patients having malign breast carcinoma are shown in the following Table 1, together with the receptor status determined for patient nos. 1 to 5.

[2] = tested on: normal or mastopathic breast tissue; experiment: Double blind clinical test, topical cream, patients with non-malign disease states; type: in vivo, human; details: 4 patients having non-malign disease states, topical administration
Protocol: as §1

MCF-7 cells = experiment: Inhibition of MCF-7 cell proliferation (counting of vital cells); type: cell-based, human; details: 10^-7 M, 10^-8 M and 10^-9 M; cell counting after 3, 6 and 9 days; compared with DHT and control
Protocol: MCF-7 cells were grown in RPMI 1640 medium at 37° C. to a cell number of about 1*10^5 cells/ml. Then, in quadruple identical MCF-7 cell samples, there were added either dihydrotestosterone (DHT) or 4-hydroxytestosterone (4-OHT), to obtain different concentrations thereof, namely 10^−7 M, 10^−8 M or 10^−9 M, and further growth of cells were determined by counting of vital cells. During the course of incubation at 37° C., cell counting were performed after 3, 6 and 9 days. For control, growth of MCF-7 cells were determined without addition of an active agent.
The results on an inhibition of MCF-7 cell proliferation are shown in FIGS. 1A, 1B and 1C for the compound concentrations of 10^−7 M, 10^−8 M and 10^−9 M of either DHT or 4-OHT, respectively, and compared with the control.

C[C@]12CC[C@H]3[C@@H](CCC4=C(O)C(=O)CC[C@@]43C)[C@@H]1CC[C@@H]2O [4-hydroxytestosterone, 4,17β-dihydroxyandrost-4-ene-3-one]
Clinical Remission ([1]; Patient # 1, ER 0, PR 0, Her2neu 0): yes
Clinical Remission ([1]; Patient # 3, ER 0, PR 0, Her2neu 0): yes
Clinical Remission ([1]; Patient # 6, receptor status unknown): yes
efficacy in shrinking cancerous tissues ([1]; clinical study overall, including ER negative cancers): excellent efficacy
tissue reduction of normal or mastopathic appearing tissues [2]: clear tendency for tissue reduction
inhibitory effect on MCF-7 cell proliferation (MCF-7 cells): significantly enhanced inhibitory effect

— patent publication US9610292B2, “Uses for 4,17β-dihydroxyandrost-4-ene-3-one” (MaBel GmbH, priority 2006, dated 2017)
